Measurements taken from patent US20060099568A1, “Signals and molecular species involved in senescence” (priority 2002, published 2006).

Columns and labels:
[1] = tested on: human diploid fibroblasts; assay: LPA-stimulated cell proliferation (viable cell count or MTT assay); assay type: cell-based; settings: 4 days treatment
Text: The optical density at 570 nm was plotted (A). The actual viable cell numbers were plotted (B).
In order to study the role of LPA-induced cAMP signaling, the inventors further compared LPA-stimulated cell proliferation between presenescent and near-senescent cells. After 4 days treatment with vehicle or LPA, the level of viable cells were counted or measured by MTT assay.

CREB = CREB phosphorylation, Western blot with anti-phospho-CREB antibody; assay type: cell-based, human; settings: near-senescent fibroblasts; 30 μg/ml LPA
Protocol: FIG. 10 represents LPA-dependent PKA activity and CREB phosphorylation in presenescent and near-senescent fibroblasts. Subconfluent presenescent (passage 8, Pa 8) and near-senescent (passage 24, Pa 24) fibroblasts were serum-starved for 2 days and treated with 30 μg/ml LPA for the indicated times. The PKA activity (A) was determined in cell homogenates with kemptide and [γ^32P]ATP as substrates. The radioactivity incorporated into kemptide was measured by a beta-counter and the enzyme activity was calculated as pmol/min/mg protein. The data represents an average of triplicate experiments. The level of phospho-CREB (B) was measured by Western blot analysis using an anti-phospho-CREB antibody.
The expression levels of signaling proteins were examined by Western blot analysis, as described previously (Yeo et al., 2000a). […] The protein concentrations of the lysates were determined using a BCA protein assay kit, as described by the protocol supplied by the manufacturer. […] To examine the level of phospholipase D 1/2, the immunoprecipitated protein obtained using 10 μl of anti-phospholipase D 1 anti-sera (Box45, ESTP4) was analyzed by Western blot against polyclonal anti-phospholipase D 1 antibodies (1:20 dilution of NC STP4 anti-serum).

adenylyl cyclases (ACs) = assay: measurement of adenylyl cyclase activity in membranes of LPA-treated cells; assay type: cell-based, human; settings: 30 μg/ml LPA
Protocol: Subconfluent presenescent (passage 8, Pa 8) and near-senescent (passage 24, Pa 24) fibroblasts were serum-starved for 2 days and treated with 30 μg/ml LPA for the indicated times. The activities of adenylyl cyclase (A) and phosphodiesterase (B) were determined in the fresh membranes and total cell lysates as described in Materials and Methods. The enzyme activities were calculated as pmol/μg/min. The data represents an average of triplicate experiments.
Cells seeded in a 10-cm culture plate were serum-starved and treated with LPA as described in the figure legends. Cells were harvested and homogenized in ice-cold homogenization buffer containing 0.25 M sucrose, 10 mM Tris-HCl, pH 7.5, 10 mM MgCl2, 2 mM EGTA, and protease inhibitors. Homogenates were centrifuged at 20,000×g at 4° C. for 20 min. Pellets were washed twice with the above buffer, resuspended in 10 mM Tris-HCl, pH 7.4, and 10 MM MgCl2, and the adenylyl cyclase assays were performed as described previously (Jang et al. 2001). The membrane proteins (15 μg/ml) were incubated for 10 min at 30° C. in a reaction mixture (100 μl) containing 40 mM Tris, pH 7.4, 0.2 mM EGTA, 100 mM NaCl, 10 mM MgCl2, 0.5 mM ATP, 5 μg/ml phosphocreatine, 5 IU/ml creatine phosphokinase, 10 μM GTP, and 0.5 mM IBMX. The reaction was stopped by adding 2.5 M perchloric acid. The amount of cAMP generated was determined by cAMP binding assay.

cellular cAMP = assay: measurement of cyclic AMP accumulation (cAMP binding assay); assay type: cell-based, human
Protocol: FIG. 9 represents LPA-induced alteration of cellular cAMP content in presenescent and near-senescent fibroblasts. Subconfluent presenescent (passage 8, Pa 8) and near-senescent (passage 24, Pa 24) fibroblasts were serum-starved for 2 days and treated with LPA: A, 1-70 μg/ml LPA for 30 min; B, 30 μg/ml LPA for the indicated times. The level of cAMP in the acid extracts was measured by cAMP binding assay. The data represents an average of triplicate experiments.
Subconfluent near-senescent (passage 26, Pa 26) fibroblasts were serum-starved for 2 days and treated with 30 μg/ml LPA for the indicated times in the absence or presence of 10 μM PKC inhibitor bisindolylmaleiamide (bIM). The level of cAMP in the acid extracts was measured by cAMP binding assay. The data represents an average of triplicate experiments.
Cells grown on a 12 well-plate were serum-starved by incubating with SFM for 2 days. After the cells were equilibrated in the fresh SFM medium for 1 hour, they were treated with LPA as described in the figure. The reaction was terminated by removing the medium and by adding 2.5 M perchloric acid. The acid extract was stored at −20° C. until use. The acid extract was neutralized with 4.2 M KOH and the cAMP content was determined by competitive binding with [^3H]cAMP to the cAMP binding protein, RIα of cAMP-dependent protein kinase, as described by Jang and Juhnn (2001). After the extraction, cells were lyzed with 0.1 N NaOH and analyzed for protein content using the Bradford protein assay reagent. The cAMP content was normalized to the amount of acid-insoluble protein.

Phospholipase C (PLC) = settings: near-senescent cells (passage 23) vs presenescent (passage 6); PDGF 50 ng/ml, LPA 1 μg/ml, 20 min, 20 mM LiCl

## lysophosphatidic acid [LPA]
[1]; near-senescent cells
  rate of LPA-stimulated proliferation: partially decreased
[1]; presenescent cells
  cell proliferation: stimulated proliferation of presenescent cells dose-dependently
CREB
  CREB phosphorylation: correlated well with cAMP accumulation
Adenylyl cyclases (ACs); near-senescent cells
  total AC activity: increased
Adenylyl cyclases (ACs); presenescent cells
  total AC activity: reduced time-dependently
Cellular cAMP; near-senescent fibroblasts, 30 μg/ml LPA for 60 min
  increase of cellular cAMP content: 70-80%
Cellular cAMP; near-senescent fibroblasts, 30 min, LPA 1-70 μg/ml
  increase of cellular cAMP: 31-77%
Cellular cAMP; presenescent fibroblasts, 30 min, LPA 1-70 μg/ml
  decrease of cellular cAMP: 33-43%
Phospholipase C (PLC)
  agonist-stimulated inositol phosphates (IPs) production: enhanced
